Test results from ChEMBL document CHEMBL4665642, “Anticancer profile of newly synthesized BRAF inhibitors possess 5-(pyrimidin-4-yl)imidazo[2,1-b]thiazole scaffold” (Bioorg Med Chem, 2019).

Key:
Assay type in all cases: functional
Conditions in all cases: read-out: Activity
Hs-578T = assay: Cytotoxicity against human HS-578T cells assessed as cell viability at 10 uM incubated for 48 hrs by sulforhodamine B assay relative to control
MDA-MB-231 = assay: Cytotoxicity against human MDA-MB-231 cells assessed as cell viability at 10 uM incubated for 48 hrs by sulforhodamine B assay relative to control
MCF7 = assay: Cytotoxicity against human MCF7 cells assessed as cell viability at 10 uM incubated for 48 hrs by sulforhodamine B assay relative to control
DU-145 = assay: Cytotoxicity against human DU-145 cells assessed as cell viability at 10 uM incubated for 48 hrs by sulforhodamine B assay relative to control
PC-3 = assay: Cytotoxicity against human PC-3 cells assessed as cell viability at 10 uM incubated for 48 hrs by sulforhodamine B assay relative to control
UO-31 = assay: Cytotoxicity against human UO-31 cells assessed as cell viability at 10 uM incubated for 48 hrs by sulforhodamine B assay relative to control
TK-10 = assay: Cytotoxicity against human TK-10 cells assessed as cell viability at 10 uM incubated for 48 hrs by sulforhodamine B assay relative to control
SN12C = assay: Cytotoxicity against human SN12C cells assessed as cell viability at 10 uM incubated for 48 hrs by sulforhodamine B assay relative to control
RXF 393 = assay: Cytotoxicity against human RXF 393 cells assessed as cell viability at 10 uM incubated for 48 hrs by sulforhodamine B assay relative to control
CAKI-1 = assay: Cytotoxicity against human CAKI-1 cells assessed as cell viability at 10 uM incubated for 48 hrs by sulforhodamine B assay relative to control
ACHN = assay: Cytotoxicity against human ACHN cells assessed as cell viability at 10 uM incubated for 48 hrs by sulforhodamine B assay relative to control
786-0 = assay: Cytotoxicity against human 786-0 cells assessed as cell viability at 10 uM incubated for 48 hrs by sulforhodamine B assay relative to control
OVCAR-8 = assay: Cytotoxicity against human OVCAR-8 cells assessed as cell viability at 10 uM incubated for 48 hrs by sulforhodamine B assay relative to control
OVCAR-5 = assay: Cytotoxicity against human OVCAR-5 cells assessed as cell viability at 10 uM incubated for 48 hrs by sulforhodamine B assay relative to control
OVCAR-3 = assay: Cytotoxicity against human OVCAR-3 cells assessed as cell viability at 10 uM incubated for 48 hrs by sulforhodamine B assay relative to control
IGROV-1 = assay: Cytotoxicity against human IGROV-1 cells assessed as cell viability at 10 uM incubated for 48 hrs by sulforhodamine B assay relative to control
UACC-257 = assay: Cytotoxicity against human UACC-257 cells assessed as cell viability at 10 uM incubated for 48 hrs by sulforhodamine B assay relative to control
SK-MEL-5 = assay: Cytotoxicity against human SK-MEL-5 cells assessed as cell viability at 10 uM incubated for 48 hrs by sulforhodamine B assay relative to control
SK-MEL-28 = assay: Cytotoxicity against human SK-MEL-28 cells assessed as cell viability at 10 uM incubated for 48 hrs by sulforhodamine B assay relative to control
SK-MEL-2 = assay: Cytotoxicity against human SK-MEL-2 cells assessed as cell viability at 10 uM incubated for 48 hrs by sulforhodamine B assay relative to control
M14 = assay: Cytotoxicity against human M14 cells assessed as cell viability at 10 uM incubated for 48 hrs by sulforhodamine B assay relative to control
MOLT-4 = assay: Cytotoxicity against human MOLT-4 cells assessed as cell viability at 10 uM incubated for 48 hrs by sulforhodamine B assay relative to control
RPMI-8226 = assay: Cytotoxicity against human RPMI-8226 cells assessed as cell viability at 10 uM incubated for 48 hrs by sulforhodamine B assay relative to control
SR = assay: Cytotoxicity against human SR cells assessed as cell viability at 10 uM incubated for 48 hrs by sulforhodamine B assay relative to control
A549 = assay: Cytotoxicity against human A549 cells assessed as cell viability at 10 uM incubated for 48 hrs by sulforhodamine B assay relative to control
HOP-62 = assay: Cytotoxicity against human HOP-62 cells assessed as cell viability at 10 uM incubated for 48 hrs by sulforhodamine B assay relative to control
HOP-92 = assay: Cytotoxicity against human HOP-92 cells assessed as cell viability at 10 uM incubated for 48 hrs by sulforhodamine B assay relative to control
NCI-H226 = assay: Cytotoxicity against human NCI-H226 cells assessed as cell viability at 10 uM incubated for 48 hrs by sulforhodamine B assay relative to control
NCI-H23 = assay: Cytotoxicity against human NCI-H23 cells assessed as cell viability at 10 uM incubated for 48 hrs by sulforhodamine B assay relative to control
NCI-H322M = assay: Cytotoxicity against human NCI-H322M cells assessed as cell viability at 10 uM incubated for 48 hrs by sulforhodamine B assay relative to control
COLO 205 = assay: Cytotoxicity against human COLO 205 cells assessed as cell viability at 10 uM incubated for 48 hrs by sulforhodamine B assay relative to control
HCC 2998 = assay: Cytotoxicity against human HCC 2998 cells assessed as cell viability at 10 uM incubated for 48 hrs by sulforhodamine B assay relative to control
HCT-116 = assay: Cytotoxicity against human HCT-116 cells assessed as cell viability at 10 uM incubated for 48 hrs by sulforhodamine B assay relative to control
HCT-15 = assay: Cytotoxicity against human HCT-15 cells assessed as cell viability at 10 uM incubated for 48 hrs by sulforhodamine B assay relative to control
HCT-29 = assay: Cytotoxicity against human […] cells assessed as cell viability at 10 uM incubated for 48 hrs by sulforhodamine B assay relative to control
SF-295 = assay: Cytotoxicity against human SF-295 cells assessed as cell viability at 10 uM incubated for 48 hrs by sulforhodamine B assay relative to control
SF-539 = assay: Cytotoxicity against human SF-539 cells assessed as cell viability at 10 uM incubated for 48 hrs by sulforhodamine B assay relative to control
SNB-19 = assay: Cytotoxicity against human SNB-19 cells assessed as cell viability at 10 uM incubated for 48 hrs by sulforhodamine B assay relative to control
SNB-75 = assay: Cytotoxicity against human SNB-75 cells assessed as cell viability at 10 uM incubated for 48 hrs by sulforhodamine B assay relative to control
U-251 = assay: Cytotoxicity against human U-251 cells assessed as cell viability at 10 uM incubated for 48 hrs by sulforhodamine B assay relative to control
LOX IMVI = assay: Cytotoxicity against human LOX IMVI cells assessed as cell viability at 10 uM incubated for 48 hrs by sulforhodamine B assay relative to control

O=S(=O)(NCCCNc1nccc(-c2c(-c3cccc(F)c3)nc3sccn23)n1)c1ccc(O)cc1
viability at 10 µM (Hs-578T): 85.6% | viability at 10 µM (MDA-MB-231): 83.9% | viability at 10 µM (MCF7): 32.2% | viability at 10 µM (DU-145): 77.4% | viability at 10 µM (PC-3): 75% | viability at 10 µM (UO-31): 31.3% | viability at 10 µM (TK-10): 87.6% | viability at 10 µM (SN12C): 58.7% | viability at 10 µM (RXF 393): 84% | viability at 10 µM (CAKI-1): 51.9% | viability at 10 µM (ACHN): 43.7% | viability at 10 µM (786-0): 65.5% | viability at 10 µM (OVCAR-8): 66.2% | viability at 10 µM (OVCAR-5): 113% | viability at 10 µM (OVCAR-3): 80.5% | viability at 10 µM (IGROV-1): 32.6% | viability at 10 µM (UACC-257): 104% | viability at 10 µM (SK-MEL-5): 57% | viability at 10 µM (SK-MEL-28): 95.9% | viability at 10 µM (SK-MEL-2): 81.3% | viability at 10 µM (M14): 70.3% | viability at 10 µM (MOLT-4): 55.5% | viability at 10 µM (RPMI-8226): 73.6% | viability at 10 µM (SR): 52.6% | viability at 10 µM (A549): 47.1% | viability at 10 µM (HOP-62): 89% | viability at 10 µM (HOP-92): 98.1% | viability at 10 µM (NCI-H226): 64.3% | viability at 10 µM (NCI-H23): 87.6% | viability at 10 µM (NCI-H322M): 79.2% | viability at 10 µM (COLO 205): 48.4% | viability at 10 µM (HCC 2998): 100% | viability at 10 µM (HCT-116): 60% | viability at 10 µM (HCT-15): 43.5% | viability at 10 µM (HCT-29): 41.8% | viability at 10 µM (SF-295): 92% | viability at 10 µM (SF-539): 99.3% | viability at 10 µM (SNB-19): 77.7% | viability at 10 µM (SNB-75): 77.8% | viability at 10 µM (U-251): 73.2% | viability at 10 µM (LOX IMVI): 61.2%

O=S(=O)(NCCNc1nccc(-c2c(-c3cccc(F)c3)nc3sccn23)n1)c1cccc2ccccc12
viability at 10 µM (Hs-578T): 103% | viability at 10 µM (MDA-MB-231): 95% | viability at 10 µM (MCF7): 74.6% | viability at 10 µM (DU-145): 97.8% | viability at 10 µM (PC-3): 80.2% | viability at 10 µM (UO-31): 59.2% | viability at 10 µM (TK-10): 112% | viability at 10 µM (SN12C): 97.1% | viability at 10 µM (RXF 393): 102% | viability at 10 µM (CAKI-1): 77.5% | viability at 10 µM (ACHN): 80.1% | viability at 10 µM (786-0): 95.4% | viability at 10 µM (OVCAR-8): 89.4% | viability at 10 µM (OVCAR-5): 127% | viability at 10 µM (OVCAR-3): 103% | viability at 10 µM (IGROV-1): 61% | viability at 10 µM (UACC-257): 107% | viability at 10 µM (SK-MEL-5): 88.3% | viability at 10 µM (SK-MEL-28): 123% | viability at 10 µM (SK-MEL-2): 104% | viability at 10 µM (M14): 107% | viability at 10 µM (MOLT-4): 73.7% | viability at 10 µM (RPMI-8226): 83.9% | viability at 10 µM (SR): 88.1% | viability at 10 µM (A549): 88% | viability at 10 µM (HOP-62): 110% | viability at 10 µM (HOP-92): 91.2% | viability at 10 µM (NCI-H226): 94.1% | viability at 10 µM (NCI-H23): 99.9% | viability at 10 µM (NCI-H322M): 104% | viability at 10 µM (COLO 205): 85% | viability at 10 µM (HCC 2998): 131% | viability at 10 µM (HCT-116): 84.6% | viability at 10 µM (HCT-15): 83.6% | viability at 10 µM (HCT-29): 83.2% | viability at 10 µM (SF-295): 106% | viability at 10 µM (SF-539): 109% | viability at 10 µM (SNB-19): 96.2% | viability at 10 µM (SNB-75): 92.3% | viability at 10 µM (U-251): 97.4% | viability at 10 µM (LOX IMVI): 95.7%

O=C(NCCCNc1nccc(-c2c(-c3cccc(F)c3)nc3sccn23)n1)c1ccc(C(F)(F)F)cc1
viability at 10 µM (Hs-578T): 75.7% | viability at 10 µM (MDA-MB-231): 89.1% | viability at 10 µM (MCF7): 69.7% | viability at 10 µM (DU-145): 81.3% | viability at 10 µM (PC-3): 70.8% | viability at 10 µM (UO-31): 35.3% | viability at 10 µM (TK-10): 74% | viability at 10 µM (SN12C): 80.1% | viability at 10 µM (RXF 393): 74.6% | viability at 10 µM (CAKI-1): 62.5% | viability at 10 µM (ACHN): 64.5% | viability at 10 µM (786-0): 58.9% | viability at 10 µM (OVCAR-8): 73.9% | viability at 10 µM (OVCAR-5): 126% | viability at 10 µM (OVCAR-3): 82.3% | viability at 10 µM (IGROV-1): 41.8% | viability at 10 µM (UACC-257): 106% | viability at 10 µM (SK-MEL-5): 75.3% | viability at 10 µM (SK-MEL-28): 96.2% | viability at 10 µM (SK-MEL-2): 98.8% | viability at 10 µM (M14): 82.8% | viability at 10 µM (MOLT-4): 44.8% | viability at 10 µM (RPMI-8226): 96.8% | viability at 10 µM (SR): 86.8% | viability at 10 µM (A549): 69% | viability at 10 µM (HOP-62): 124% | viability at 10 µM (HOP-92): 93.6% | viability at 10 µM (NCI-H226): 78.8% | viability at 10 µM (NCI-H23): 95.5% | viability at 10 µM (NCI-H322M): 90.3% | viability at 10 µM (COLO 205): 74.8% | viability at 10 µM (HCC 2998): 112% | viability at 10 µM (HCT-116): 66.7% | viability at 10 µM (HCT-15): 54.2% | viability at 10 µM (HCT-29): 53.8% | viability at 10 µM (SF-295): 87.5% | viability at 10 µM (SF-539): 104% | viability at 10 µM (SNB-19): 87.6% | viability at 10 µM (SNB-75): 82.6% | viability at 10 µM (U-251): 83% | viability at 10 µM (LOX IMVI): 82.6%
